Results: US12065430B2, “Indazole compound or salt thereof” (TAIHO PHARMACEUTICAL CO., LTD., priority 2018, dated 2024)

Target: G12C K-Ras4B (1-169) (Homo sapiens (Human), UniProt P01116, G12C)
Experiment: Test of compounds on whether to bind to KRASG12C (LC-MS compound binding rate)
Settings: final compound concentration of 2 μM, 1 μM protein, 25° C. for 2 hours
Description: Test compounds were prepared in the form of a 10 mM DMSO solution.
K-Ras4B (1-169) and G12C K-Ras4B (1-169) proteins were mixed and diluted with a buffer (1×TBS, 0.1 mM TCEP) to prepare individual 1 μM protein solutions. A 10 mM test compound was diluted tenfold with DMSO to make a 1 mM solution, and then diluted fivefold with DMSO to make a 200 μM solution. The 200 μM solution was further diluted fivefold to make a 40 μM solution. When the final compound concentration was 10 μM, 1 μL of a 200 μM test compound was added to 19 μL of a 1 μM protein solution. When the final compound concentration was 2 μM, 1 μL of a 40 μM test compound was added to 19 μL of a 1 μM protein solution. The mixtures were stored in an incubator at 25° C. for 2 hours, and 80 μL of a 1×TBS solution containing 0.2% formic acid was added thereto to end the reaction, followed by LC-MS measurement. LC-MS measurement was performed using Xevo G2-S Q-Tof manufactured by Waters, and reverse-phase chromatography was performed with a desalting column. A mass spectrum of positive ions was obtained by electrospray. For a mass spectrum, a spectrum of a polyvalent ion was collectively converted to a molecular weight by using OpenLynx software by the MaxEnt technique, and a compound binding rate was obtained from the ratio of a signal intensity that corresponds to the molecular weight of a protein to a signal intensity that corresponds to the molecular weight of a compound binding to the protein.
By obtaining the compound binding rate for K-Ras4B (1-169) and the compound binding rate for G12C K-Ras4B (1-169) at the same time, information of the selectivity for G12C K-Ras4B (1-169) was obtained at the same time.
The test compounds were measured at their final compound concentration of 2 μM. […] Almost no compounds of the present invention binded to K-Ras4B (1-169). The “binding rate” (%) for each of K-Ras4B (1-169) and G12C K-Ras4B (1-169) refers to the ratio of the signal intensity of binded forms to the sum of the signal intensity of non-binded forms and the signal intensity of binded forms.

Compound | binding rate for G12C K-Ras4B (1-169)
C=CC(=O)N1CC(NC(=O)c2csc(CNc3n[nH]c4cc(Cl)c(C(C)(C)C)cc34)n2)C1 [Example 7, N-(1-acryloylazetidin-3-yl)-2-(((5-(tert-butyl)-6-chloro-1H-indazol-3-yl)amino)methyl)thiazole-4-carboxamide] | D (a binding rate of 20% or more and less than 40% is rated “D,”)
C=CC(=O)N1CC(NC(=O)c2c(Cl)nc(CNc3n[nH]c4cc(Cl)c(C(C)(C)C)cc34)n2-c2ccccn2)C1 [Example 94, N-(1-acryloylazetidin-3-yl)-2-(((5-(tert-butyl)-6-chloro-1H-indazol-3-yl)amino)methyl)-4-chloro-1-(pyridin-2-yl)-1H-imidazole-5-carboxamide] | B (a binding rate of 60% or more and less than 80% is rated “B,”)
Cc1nc(CNc2n[nH]c3cc(Cl)c(C(C)(C)C)cc23)n(C(C)C)c1C(=O)NC1CN(C(=O)/C=C/CN2CCCCC2)C1 [Example 79, (E)-2-(((5-(tert-butyl)-6-chloro-1H-indazol-3-yl)amino)methyl)-1-isopropyl-4-methyl-N-(1-(4-(piperidin-1-yl)but-2-enoyl)azetidin-3-yl)-1H-imidazole-5-carboxamide] | E (a binding rate of less than 20% is rated “E.”)
C=CC(=O)N1C[C@H](NC(=O)c2c(C)nc(CNc3n[nH]c4cc(Cl)c(C(C)(C)C)cc34)n2C)[C@H](OC)C1 [Example 61, N-((3S,4R)-1-acryloyl-4-methoxypyrrolidin-3-yl)-2-(((5-(tert-butyl)-6-chloro-1H-indazol-3-yl)amino)methyl)-1,4-dimethyl-1H-imidazole-5-carboxamide] | B (a binding rate of 60% or more and less than 80% is rated “B,”)
C=CC(=O)N1CC(NC(=O)c2c(C)nc(CNc3n[nH]c4cc(Cl)c(C(C)(C)C)cc34)n2CCOC)C1 [Example 14, N-(1-acryloylazetidin-3-yl)-2-(((5-(tert-butyl)-6-chloro-1H-indazol-3-yl)amino)methyl)-1-(2-methoxyethyl)-4-methyl-1H-imidazole-5-carboxamide] | B (a binding rate of 60% or more and less than 80% is rated “B,”)
C=CC(=O)N1CC(NC(=O)c2oc(CNc3n[nH]c4cc(Cl)c(C(C)(C)C)cc34)nc2C)C1 [Example 11, N-(1-acryloylazetidin-3-yl)-2-(((5-(tert-butyl)-6-chloro-1H-indazol-3-yl)amino)methyl)-4-methyloxazole-5-carboxamide] | B (a binding rate of 60% or more and less than 80% is rated “B,”)
[2H]C([2H])(Nc1n[nH]c2cc(Cl)c(C(C)(C)C)cc12)c1nc(C(F)F)c(C(=O)NC2CN(C(=O)C=C)C2)n1C(C)C [Example 36, N-(1-acryloylazetidin-3-yl)-2-(((5-(tert-butyl)-6-chloro-1H-indazol-3-yl)amino)methyl-d2)-4-(difluoromethyl)-1-isopropyl-1H-imidazole-5-carboxamide] | B (a binding rate of 60% or more and less than 80% is rated “B,”)
C=CC(=O)N1C[C@@H](CN(C)C)[C@@H](NC(=O)c2c(C)nc(CNc3n[nH]c4cc(Cl)c(C(C)(C)C)cc34)n2C)C1 [Example 68, N-((3R,4R)-1-acryloyl-4-((dimethylamino)methyl)pyrrolidin-3-yl)-2-(((5-(tert-butyl)-6-chloro-1H-indazol-3-yl)amino)methyl)-1,4-dimethyl-1H-imidazole-5-carboxamide] | C (a binding rate of 40% or more and less than 60% is rated “C,”)
C=CC(=O)N1C[C@@H](F)[C@@H](NC(=O)c2c(C)nc(CNc3n[nH]c4cc(Cl)c(C(C)(C)C)cc34)n2C)C1 [Example 57, N-((3S,4R)-1-acryloyl-4-fluoropyrrolidin-3-yl)-2-(((5-(tert-butyl)-6-chloro-1H-indazol-3-yl)amino)methyl)-1,4-dimethyl-1H-imidazole-5-carboxamide] | C (a binding rate of 40% or more and less than 60% is rated “C,”)
C=CC(=O)N1C[C@@H](COC)[C@@H](NC(=O)c2c(C)nc(CNc3n[nH]c4cc(Cl)c(C(C)(C)C)cc34)n2C)C1 [Example 67, N-((3R,4R)-1-acryloyl-4-(methoxymethyl)pyrrolidin-3-yl)-2-(((5-(tert-butyl)-6-chloro-1H-indazol-3-yl)amino)methyl)-1,4-dimethyl-1H-imidazole-5-carboxamide] | A (a binding rate of 80% or more is rated “A,”)
C=CC(=O)N1CC(NC(=O)c2c(Cl)nc(CNc3n[nH]c4cc(Cl)c(C(C)(C)C)cc34)n2[C@@H]2CCN(C3CC3)C2)C1 [Example 120, (R)—N-(1-acryloylazetidin-3-yl)-2-(((5-(tert-butyl)-6-chloro-1H-indazol-3-yl)amino)methyl)-4-chloro-1-(1-cyclopropylpyrrolidin-3-yl)-1H-imidazole-5-carboxamide] | A (a binding rate of 80% or more is rated “A,”)
C=CC(=O)N1CC(NC(=O)c2cnc(CNc3n[nH]c4cc(Cl)c(C(C)(C)C)cc34)n2Cc2cc(OC)cc(OC)c2)C1 [Example 88, N-(1-acryloylazetidin-3-yl)-2-(((5-(tert-butyl)-6-chloro-1H-indazol-3-yl)amino)methyl)-1-(3,5-dimethoxybenzyl)-1H-imidazole-5-carboxamide] | B (a binding rate of 60% or more and less than 80% is rated “B,”)
C=CC(=O)N1CC(NC(=O)c2c(C)nc(CNc3n[nH]c4cc(Cl)c(C(C)(C)C)cc34)n2Cc2ccccc2)C1 [Example 15, N-(1-acryloylazetidin-3-yl)-1-benzyl-2-(((5-(tert-butyl)-6-chloro-1H-indazol-3-yl)amino)methyl)-4-methyl-1H-imidazole-5-carboxamide] | A (a binding rate of 80% or more is rated “A,”)
C=CC(=O)N1CC[C@@H](NC(=O)c2c(Cl)nc(CNc3n[nH]c4cc(Cl)c(C(C)(C)C)cc34)n2C)C1 [Example 73, (R)—N-(1-acryloylpyrrolidin-3-yl)-2-(((5-(tert-butyl)-6-chloro-1H-indazol-3-yl)amino)methyl)-4-chloro-1-methyl-1H-imidazole-5-carboxamide] | B (a binding rate of 60% or more and less than 80% is rated “B,”)
C=CC(=O)N1CC(NC(=O)c2cnc(CNc3n[nH]c4cc(Cl)c(CC)cc34)n2C)C1 [Example 39, N-(1-acryloylazetidin-3-yl)-2-(((6-chloro-5-ethyl-1H-indazol-3-yl)amino)methyl)-1-methyl-1H-imidazole-5-carboxamide] | C (a binding rate of 40% or more and less than 60% is rated “C,”)
C=CC(=O)N1CC(NC(=O)c2c(C)nc(CNc3n[nH]c4cc(Cl)c(C(C)(C)C)cc34)n2C2CCCC2)C1 [Example 17, N-(1-acryloylazetidin-3-yl)-2-(((5-(tert-butyl)-6-chloro-1H-indazol-3-yl)amino)methyl)-1-cyclopentyl-4-methyl-1H-imidazole-5-carboxamide] | B (a binding rate of 60% or more and less than 80% is rated “B,”)
C=CS(=O)(=O)N1CC(NC(=O)c2c(C)nc(CNc3n[nH]c4cc(Cl)c(C(C)(C)C)cc34)n2C(C)C)C1 [Example 86, 2-(((5-(tert-butyl)-6-chloro-1H-indazol-3-yl)amino)methyl)-1-isopropyl-4-methyl-N-(1-(vinylsulfonyl)azetidin-3-yl)-1H-imidazole-5-carboxamide] | A (a binding rate of 80% or more is rated “A,”)
C=CC(=O)N1CC[C@@H](NC(=O)c2c(F)nc(CNc3n[nH]c4cc(Cl)c(C(C)(C)C)cc34)n2C)C1 [Example 72, (R)—N-(1-acryloylpyrrolidin-3-yl)-2-(((5-(tert-butyl)-6-chloro-1H-indazol-3-yl)amino)methyl)-4-fluoro-1-methyl-1H-imidazole-5-carboxamide] | B (a binding rate of 60% or more and less than 80% is rated “B,”)
C=CC(=O)N1CC(NC(=O)c2c(Cl)nc(CNc3n[nH]c4cc(Cl)c(C(C)(C)C)cc34)n2CCCC)C1 [Example 87, N-(1-acryloylazetidin-3-yl)-1-butyl-2-(((5-(tert-butyl)-6-chloro-1H-indazol-3-yl)amino)methyl)-4-chloro-1H-imidazole-5-carboxamide] | A (a binding rate of 80% or more is rated “A,”)
